“Also recorded” adds a separate entry of the source. Counter-ions that a name gives are not always drawn.
Experiments:
Format in all cases: physicochemical
[1] = Solubility of salts in water and in 0.2 M phosphate buffer pH 6 at 37° C. after 4 hours (HPLC-DAD); details: for Dissolution behaviour in aqueous media (gelling, wettability): salt screen, water and/or 0.2 M phosphate buffer pH 6; for pH (4 h): pH at end of equilibration
Procedure, shortened: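 About 5 mg of salt received 200 μL aliquots of water or 0.2 M phosphate buffer pH 6, up to 1 mL, and was stirred at 37 °C for 4 h. After centrifugation and 0.2 […] PTFE filtration, dissolved concentration was determined by HPLC-DAD against voruciclib calibration, and final pH was recorded.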

[2] = Qualitative solubility determination in water at room temperature, with observation of gel formation; details: for Behaviour upon addition of water (gel formation): small amount of water added to solid
Procedure: The aqueous solubility of Oxa2 (starting material) was assessed by the qualitative solubility determination approach. To 5.4 mg of Oxa2, water was added in steps of 50 μl until the material was dissolved (Exp. ID: SAS1). Visual inspection by the naked eye was used to decide whether complete dissolution occurred.
After the addition of 7.5 ml water, Oxa2 was not dissolved in water at room temperature. The suspension was heated to 50° C. upon which complete dissolution occurred, as indicated by a clear solution.
The aqueous solubility of Pho1 (Exp. ID: TCP23) was assessed by the qualitative solubility determination approach. To 5.6 mg of Pho1, water was added in steps of 50 μl until the material was dissolved (Exp. ID: SAS2). Visual inspection by the naked eye was used to decide whether complete dissolution occurred. After the addition of 700 μl water, Pho1 was not dissolved in water at room temperature whereas after a subsequent addition of 200 μl water (900 μl in total), the material completely dissolved.
The solubility of Mao1 in water was determined by adding small aliquots of water to the material until it was dissolved.

[3] = Dynamic Vapor Sorption (DVS) hygroscopicity; details: for Water uptake: 25° C./80% RH; for Hygroscopicity classification: European Pharmacopoeia classification, water uptake at 25° C./80% RH; for Solid form recovered after DVS analysis: XRPD after sorption-desorption-sorption cycle
Procedure: (§1) Differences in hygroscopicity (moisture uptake) of the various forms of a solid material provided a measure of their relative stability at increasing relative humidity. Moisture sorption isotherms of small samples were obtained using a DVS-1 system from Surface Measurement Systems (London, UK); this instrument is suitable for use with a few milligrams of sample, with an accuracy of 0.1 μg. The relative humidity was varied during sorption-desorption-sorption (45-95-0-45% RH) at a constant temperature of 25° C. Weight equilibration per step was set at dm/dt <0.0002 for a minimum of 1 hour or maximum of 6 hours. Afterwards the sample was measured by HT-XRPD.
The hygroscopicity was classified according to the European Pharmacopoeia Hygroscopicity classification.
as §1, with “(40-95-0-40%” for “(45-95-0-45%”
as §1, with “use with as little as a few” for “use with a few”
The hygroscopicity of Mao1 was determined by DVS. The powder was exposed to a RH profile consisting of sorption/desorption/sorption cycles (40-95-0-40% RH) performed at 25° C. The water vapor uptake gained during the sorption half-cycle was 0.75%.

[4] = 0.2 M phosphate buffer pH 6, 37° C., 4 hours
[5] = 0.2M phosphate buffer pH 6, 37° C., 4 hours, about 1 mg salt in 1 mL
[6] = 0.2M phosphate buffer pH 6, 37° C., 4 hours, about 5 mg salt in 1 mL
[7] = 0.2 M phosphate buffer pH 6, 37° C., 4 hours, XRPD
[8] = 0.2M phosphate buffer pH 6, 37° C., about 1 mg salt in 1 mL
[9] = 0.2M phosphate buffer pH 6, 37° C., about 5 mg salt in 1 mL
[10] = water, 37° C., 4 hours, about 1 mg salt in 1 mL
[11] = water, 37° C., 4 hours, about 5 mg salt, up to 1 mL
[12] = water, 37° C., about 1 mg salt in 1 mL
[13] = water, 37° C., about 5 mg salt, up to 1 mL

Row | SMILES | Dissolution behaviour in aqueous media (gelling, wettability) [1] | Behaviour upon addition of water (gel formation) [2] | Solubility in phosphate buffer [1, 4] | solubility [1, 5] | solubility [1, 6] [µg/mL] | Solids recovered / salt dissociation after solubility determination in buffer [1, 7] | Form (4 h) of residual solid [1, 8] | pH (4 h) [1, 8] | Form (4 h) of residual solid [1, 9] | pH (4 h) [1, 9] | solubility [1, 10] | solubility [1, 11] | pH (4 h) [1, 12] | pH (4 h) [1, 13] | Water uptake ([3]; DVS) | Hygroscopicity classification [3] | Solid form recovered after DVS analysis [3] | other results
1 | CN1CC[C@H](c2c(O)cc(O)c3c(=O)cc(-c4ccc(C(F)(F)F)cc4Cl)oc23)[C@H]1CO (stereo in doubt) [voruciclib malonate, 2-(2-chloro-4-(trifluoromethyl)phenyl)-5,7-dihydroxy-8-((2S,3R)-2-(hydroxymethyl)-1-methylpyrrolidin-3-yl)-4H-chromen-4-one malonate salt] | no gelling | gelling was not observed when exposed to water | – | – | – | – | – | – | – | – | – | – | – | – | – | – | – | Solubility pH 6 [1, 4]: 0.07 mg/mL; Solubility water ([1]; water, 37° C., 4 hours): 4400 µg/mL; solubility at 4 h ([1]; water, 37 °C, thermodynamic from solid, secondary salt screen (FIG. 290)): > 5000 µg/mL
2 | CN1CC[C@@H](c2c(O)cc(O)c3c(=O)cc(-c4ccc(C(F)(F)F)cc4Cl)oc23)[C@@H]1CO.O=C(O)CC(=O)O [Mao1] | there was no gelling or increase in viscosity observed | no gel-formation was observed; also recorded: gel formation was not observed | 70 µg/mL | 20 µg/mL | 70 | dissociation of the salt occurred | Free | 6.2 | Free | 5.8 | (0.9) mg/mL | 4440 µg/mL | 4.1 | 3.5 | 0.15% | non-hygroscopic | No solid form conversion was observed | Solubility in water ([1]; water, 37° C., 4 hours): 4400 µg/mL; Solids recovered after solubility determination in water ([1]; water, 37° C., 4 hours, XRPD): the solids recovered were still identical to Mao1; Form (4 h) of residual solid [1, 13]: Mao1; Water uptake gained during the first sorption half-cycle ([3]; DVS, 25° C., 40 to 95% RH): 0.75%; Solubility in water at room temperature ([2]; qualitative determination by adding aliquots of water, visual): approximately 13 mg/ml
3 | CN1CCC(c2c(O)cc(O)c3c(=O)cc(-c4ccc(C(F)(F)F)cc4Cl)oc23)C1CO.O=P(O)(O)O (stereo not drawn) [Pho1] | no gelling was observed | became a gel when exposed to water; also recorded: became a gel upon addition of water; also recorded: became a gel-like material | about 0.03 mg/mL | hazy | 30 | salt had dissociated in the buffer solution | Free | 6.0 | Free | 5.8 | (0.9) mg/mL | (5.2) mg/mL | 4.6 | 3.7 | approximately 5.0% | moderately hygroscopic | Pho1 was recovered | Stability against variable humidity conditions ([3]; between 0-95% RH): stable against variable humidity conditions
